Assays:
[1] = biological target: T1, PsAlgB (mixed with PsBphP1) (Pseudomonas syringae group genomosp. 3, UniProt Q88AQ2); settings: 1.5 mM ATP, 5 mM MgCl2, pH 7.5, 22 °C, 175 mM KSCN; needs PsBphP1 (Pr or Pfr); authors presume the ATPase is intrinsic to PsAlgB
T1 construct: gene algB

[2] = biological target: T2, PsBphP1 (Pseudomonas syringae group genomosp. 3, UniProt Q885D3); settings: labelled compound; Pfr under red light; 150 uM ATP, 5 mM MgCl2, pH 7.5, 22 °C; phosphoacceptor His530
T2 construct: gene bphP
T2 sequence (Q885D3 1-745): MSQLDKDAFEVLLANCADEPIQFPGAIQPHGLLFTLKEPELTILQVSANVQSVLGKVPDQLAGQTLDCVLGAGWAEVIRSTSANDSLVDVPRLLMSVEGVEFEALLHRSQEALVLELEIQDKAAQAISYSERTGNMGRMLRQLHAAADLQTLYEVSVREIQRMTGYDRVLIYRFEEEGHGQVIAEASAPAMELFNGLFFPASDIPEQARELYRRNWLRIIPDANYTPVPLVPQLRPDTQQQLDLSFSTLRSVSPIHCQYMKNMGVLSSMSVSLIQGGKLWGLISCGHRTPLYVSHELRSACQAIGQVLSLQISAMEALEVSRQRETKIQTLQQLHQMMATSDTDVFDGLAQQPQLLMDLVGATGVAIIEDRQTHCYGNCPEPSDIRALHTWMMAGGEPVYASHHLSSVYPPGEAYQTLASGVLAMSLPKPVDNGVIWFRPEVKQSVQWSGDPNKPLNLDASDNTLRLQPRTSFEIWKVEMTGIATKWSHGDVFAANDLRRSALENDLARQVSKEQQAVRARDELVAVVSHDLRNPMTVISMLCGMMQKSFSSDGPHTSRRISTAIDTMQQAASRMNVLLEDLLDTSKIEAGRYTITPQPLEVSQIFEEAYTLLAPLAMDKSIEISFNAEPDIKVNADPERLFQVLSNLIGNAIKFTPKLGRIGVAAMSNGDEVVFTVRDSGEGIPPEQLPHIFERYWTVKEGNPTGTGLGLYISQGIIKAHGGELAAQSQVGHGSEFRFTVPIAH

[3] = biological target: the molecule itself; assay: cryo-EM structure; PsBphP1 as Pr (dark-adapted), 0.5 mg/mL, 175 mM KSCN, 10 mM 2-mercaptoethanol, 10 mM HEPES-NaOH pH 7.5; head-to-head dimer
[4] = biological target: the molecule itself; assay: cryo-EM structure; PsBphP1 as Pfr (irradiated 10 min with 630-nm LED), 0.5 mg/mL, 175 mM KSCN, 10 mM 2-mercaptoethanol, 10 mM HEPES-NaOH pH 7.5; dimers (medial, splayed) and tetrameric dimer-of-dimers

T1 sequence (Q88AQ2 whole entry, one chain of several): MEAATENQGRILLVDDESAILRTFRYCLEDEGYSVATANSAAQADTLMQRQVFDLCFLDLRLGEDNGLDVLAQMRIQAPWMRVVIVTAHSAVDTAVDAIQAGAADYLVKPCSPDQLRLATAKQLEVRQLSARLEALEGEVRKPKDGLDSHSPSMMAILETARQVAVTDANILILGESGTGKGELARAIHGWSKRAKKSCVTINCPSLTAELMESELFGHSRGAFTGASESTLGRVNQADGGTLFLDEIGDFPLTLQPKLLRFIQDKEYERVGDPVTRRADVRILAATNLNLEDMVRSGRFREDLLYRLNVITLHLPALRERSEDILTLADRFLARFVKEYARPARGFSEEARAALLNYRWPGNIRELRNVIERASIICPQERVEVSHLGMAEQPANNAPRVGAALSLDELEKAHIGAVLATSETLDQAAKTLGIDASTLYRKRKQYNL

Molecule: Nc1ncnc2c1ncn2[C@@H]1O[C@H](COP(=O)(O)OP(=O)(O)OP(=O)(O)O)[C@@H](O)[C@H]1O [ATP]
- SEC elution shift of ATP to ADP [1]: the two proteins together elicited robust ATPase activity for PsAlgB
- autophosphorylation with 32P-ATP, SDS-PAGE and phosphorimaging [2]: initial autophosphorylation of PsBphP1 required the predicted internal phosphoacceptor His530

B1: Pseudomonas syringae bacteriophytochrome photoreceptor BphP1 (PsBphP1), full length, assembled with biliverdin (natural protein)
chain: GMSQLDKDAFEVLLANCADEPIQFPGAIQPHGLLFTLKEPELTILQVSANVQSVLGKVPDQLAGQTLDCVLGAGWAEVIRSTSANDSLVDVPRLLMSVEGVEFEALLHRSQEALVLELEIQDKAAQAISYSERTGNMGRMLRQLHAAADLQTLYEVSVREIQRMTGYDRVLIYRFEEEGHGQVIAEASAPAMELFNGLFFPASDIPEQARELYRRNWLRIIPDANYTPVPLVPQLRPDTQQQLDLSFSTLRSVSPIHCQYMKNMGVLSSMSVSLIQGGKLWGLISCGHRTPLYVSHELRSACQAIGQVLSLQISAMEALEVSRQRETKIQTLQQLHQMMATSDTDVFDGLAQQPQLLMDLVGATGVAIIEDRQTHCYGNCPEPSDIRALHTWMMAGGEPVYASHHLSSVYPPGEAYQTLASGVLAMSLPKPVDNGVIWFRPEVKQSVQWSGDPNKPLNLDASDNTLRLQPRTSFEIWKVEMTGIATKWSHGDVFAANDLRRSALENDLARQVSKEQQAVRARDELVAVVSHDLRNPMTVISMLCGMMQKSFSSDGPHTSRRISTAIDTMQQAASRMNVLLEDLLDTSKIEAGRYTITPQPLEVSQIFEEAYTLLAPLAMDKSIEISFNAEPDIKVNADPERLFQVLSNLIGNAIKFTPKLGRIGVAAMSNGDEVVFTVRDSGEGIPPEQLPHIFERYWTVKEGNPTGTGLGLYISQGIIKAHGGELAAQSQVGHGSEFRFTVPIAH
modifications: biliverdin (BV) covalently linked via a thioether linkage to Cys16
notes: PsBphP1, bacteriophytochrome histidine kinase of Pseudomonas syringae, full-length polypeptide, residues 1-745; One molecule for both light states: Pr (dark-adapted) and Pfr (red-light irradiated, ~80% Pfr); the state is named in each assay; Dimer as Pr; dimer-tetramer (dimer-of-dimers) equilibrium as Pfr; also called P. syringae BphP1; P. syringae BphP; not shown: His6, N-terminal, cleaved
- stoichiometry N [3]: 2
- stoichiometry N [4]: 4

Source: PMC11316798, “Signaling by a bacterial phytochrome histidine kinase involves a conformational cascade reorganizing the dimeric photoreceptor” (Nature Communications, 2024)
